Measured values as given in PMC7416818 (Analytical biochemistry, 2020).
Where two headings read alike, the source gives them in different places.

Legend:
NNMT [1] = biological target: T1, NNMT (Homo sapiens, UniProt P40261); settings: read-out: Literature value Ki, determined by SAHH coupled assay; cited from earlier work
T1 sequence (P40261 1-264): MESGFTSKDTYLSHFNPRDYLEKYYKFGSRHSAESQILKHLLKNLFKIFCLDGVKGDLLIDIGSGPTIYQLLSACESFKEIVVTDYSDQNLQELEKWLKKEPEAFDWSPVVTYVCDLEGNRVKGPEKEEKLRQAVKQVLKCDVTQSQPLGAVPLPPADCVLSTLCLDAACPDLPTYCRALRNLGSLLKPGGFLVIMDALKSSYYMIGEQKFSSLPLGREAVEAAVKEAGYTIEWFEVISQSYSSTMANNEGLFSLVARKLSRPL

NNMT [2] = biological target: T1, NNMT; assay: FP-based competition binding assay with probe II138
NNMT [3] = biological target: T1, NNMT; settings: read-out: Literature value Km; cofactor; cited from earlier work
NNMT [4] = biological target: T1, NNMT; assay: SAHH-coupled fluorescence assay; format: biochemical; settings: linker effect

Ki (NNMT [2]) | Difference of Ki in FP assay in comparison with SAHH coupled assay (NNMT [2]; FP Ki versus SAHH-coupled Ki) | Loss in Ki in comparison with LL320 (NNMT [4]) | Compound | Ki (NNMT [1]) | Km (NNMT [3])
 |  |  | 1 methyl quinoline [1-MQ] | > 100 µM | 
20.3 ± 2.9 µM |  |  | C[S+](CC[C@H](N)C(=O)[O-])C[C@H]1O[C@@H](n2cnc3c(N)ncnc32)[C@H](O)[C@@H]1O (stereo partly drawn) [AdoMet, S-adenosyl-L-methionine] |  | 24 ± 6.8 µM
> 1000 µM |  |  | NC(=O)c1cccnc1 [NAM, nicotinamide] | > 100 µM | 
 | less than 2 fold | about 100 fold | NCCCNc1ncnc2c1ncn2[C@@H]1O[C@H](CN(CC#Cc2cccc(C(N)=O)c2)CC[C@H](N)C(=O)O)[C@@H](O)[C@H]1O [compound 10] |  | 
